Usually EC50 stands for the concentration that produces a half-maximal response. A lower EC50 goes with a more potent agent.

This is an account of results in patent US10669240B2, “5-substituted indazole-3-carboxamides and preparation and use thereof” (Samumed, LLC, priority 2014, dated 2020).

Format in all cases: cell-based
Assay [1] relates to Wnt activity (Wnt-responsive SP5 promoter luciferase reporter in SW480 cells). Nature of the assay: Wnt activity reporter assay: SW480 cells with SP5 promoter-driven firefly luciferase. The settings on record: Homo sapiens, 24 h after compound addition, read-out: Wnt inhibition. A digest of the protocol:
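SW480 cells (APC-mutant colon line) stably carrying a lentiviral SP5-promoter (eight TCF/LEF sites) firefly luciferase reporter were plated at ~10,000 cells/well. Luminescence was normalized to DMSO-only cells and used for IC50.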
(In general: A reporter such as luciferase makes a cellular process visible.)

Assay [2] relates to primary human fibroblasts derived from IPF patients (LL29 cells). Nature of the assay: Inhibition of the fibrotic process: αSMA staining in TGF-β1 treated LL29 fibroblasts. The settings on record: Fibroblast, 72 h, TGF-β1 10 ng/ml, 3 days, read-out: Inhibition of fibrosis IC50.
Protocol: The above synthesized compounds were screened using primary human fibroblasts (derived from IPF patients) treated with TGF-β1 to determine their ability to inhibit the fibrotic process.
Each compound was dissolved in DMSO as a 10 mM stock and used to prepare compound source plates. […] LL29 cells were plated at 1,000 cells/well in 50 μl/well serum free F12 medium. […] Wells untreated with TGF-β1 were used as control for normalization and calculating IC50 values. Cells were incubated at 37° C. and 5% CO2 for 3 days. Cells were fixed using 4% formaldehyde (Electron Microscopy Sciences), washed 3 times with PBS followed by blocking and permeabilization using 3% Bovine Serum Albumin (BSA; Sigma) and 0.3% Triton X-100 (Sigma) in PBS. […] The IC50 values are reported.
The test system of assay [3] is primary human mesenchymal stem cells (hMSCs). In words: Chondrogenesis assay in primary human mesenchymal stem cells, nodule count vs TGF-β3 positive control. The settings on record: 6 days; for Conc (nM) of Max. activity: 6-point dose-response 2700 nM to 10 nM, dose at which maximum chondrogenesis activity was reached; for Conc (nM) of 100% TGF-β3 activity: concentration required to induce chondrogenesis equivalent to TGF-β3 (10 ng/mL); for Max. Activity as % TGF-β3 activity: relative to TGF-β3 (10 ng/mL) positive control. The text has this: The above synthesized compounds were screened using primary human mesenchymal stem cells (hMSCs) to determine their ability to induce chondrogenesis (process by which cartilage is developed).
Human Mesenchymal Stem Cell Culture:
Primary human mesenchymal stem cells (hMSCs) were purchased from Lonza (Walkersville, Md.) and expanded in Mesenchymal Stem Cell Growth Media (Lonza). Cells between passage 3 and 6 were used for the experiments.
Number of nodules in each well was normalized to the average of 3 DMSO treated wells on the same plate using Excel (Microsoft Inc.). The normalized averages (fold change over DMSO) of 3 replicate wells for each compound concentration were calculated. Due to solubility limitations of some of the compounds, curve fitting was incomplete leading to inaccurate EC50 determinations.
Using TGF-β3 as a positive control, the concentration of test compounds required to induce equivalent levels of chondrogenesis is reported. In addition, the maximum activity of each compound and the respective dose that each compound reached maximum chondrogenesis activity is reported.

Assay [4] has as its target DYRK1A (Homo sapiens (Human), UniProt Q13627). In words: DYRK1A activity Tau assay: pSer396 Tau in SH-SY5Y cells by ELISA / western blot. The settings on record: overnight (16-18 h) exposure.
Description: In another example, in vitro assays for DYRK1A biological activity may be used, e.g. regulation of microtubule-associated protein tau (MAPT/Tau) phosphorylation in neuronal cell line such as the human SH-SY5Y neuroblastoma cell line. Assays for DYRK1a-regulated level of phosphorylation can include monitoring levels of basal pSer396 Tau, which can be measured, for example, by serial dilutions of a candidate inhibitor composition using a ten micromolar top concentration and detected by ELISA or Western Blotting. An exemplary assay for DYRK-1a-regulated phosphorylation uses the SH-SY5Y cells cultured in a 96 well plate format for a period of time sufficient to stabilize microtubules and Tau phosphorylation, usually at least 2 days, then treated with a 1/3 serial dilution of compounds overnight and lysed. The cell lysate is resolved by SDS PAGE, then transferred to nitrocellulose and probed with an antibody specific for pSer396 Tau.
In a further example, the activity of a candidate compound can be measured by ELISA by adding the lysate mentioned above onto total Tau-coated plates and detected with a specific pSer396 antibody.

Molecules are shown by their SMILES.

For the compound `CN1CCN(c2ccc(NC(=O)c3n[nH]c4ccc(-c5cncc(NC(=O)c6cc(F)ccc6F)c5)cc34)cn2)CC1` [Compound 48, 5-(5-(2,5-Difluorobenzamido)pyridin-3-yl)-N-(6-(4-methylpiperazin-1-yl)pyridin-3-yl)-1H-indazole-3-carboxamide], the IC50 in assay [1] was 31 nM. Further, in assay [2], the IC50 turned out to be 67 nM. In addition, in assay [3], the “Conc (nM) of Max. activity” value is 2700 nM, the “Conc (nM) of 100% TGF-β3 activity” value was 2700 nM and the “Max. Activity as % TGF-β3 activity” value is 237%. Besides, a half-maximal effect in assay [4] (EC50) was put at 2 nM.

Consider `COc1ccc(NC(=O)c2n[nH]c3ccc(-c4cncc(CN5CCCC5)c4)cc23)cn1` [Compound 53, N-(6-Methoxypyridin-3-yl)-5-(5-(pyrrolidin-1-ylmethyl)pyridin-3-yl)-1H-indazole-3-carboxamide], for which the IC50 in assay [1] turned out to be 50 nM. The IC50 in assay [2] was determined as 231 nM. In assay [3], the “Conc (nM) of Max. activity” value was 2700 nM and the “Max. Activity as % TGF-β3 activity” value is 86%. In addition, the concentration giving a half-maximal response (EC50) in assay [4] came out at 2 nM.

With `COc1ccc(NC(=O)c2n[nH]c3ccc(-c4cncc(CN5CCC(F)(F)C5)c4)cc23)cn1` [Compound 54, 5-(5-((3,3-Difluoropyrrolidin-1-yl)methyl)pyridin-3-yl)-N-(6-methoxypyridin-3-yl)-1H-indazole-3-carboxamide], the IC50 in assay [1] came to 5 nM. Besides, in assay [2], the IC50 came out at 51 nM. Moreover, in assay [3], the “Conc (nM) of Max. activity” value is recorded as 300 nM and the “Max. Activity as % TGF-β3 activity” value came out at 51%. Moreover, the EC50 in assay [4] is 2 nM.

On to `CN1CCN(c2ccc(NC(=O)c3n[nH]c4ccc(-c5cncc(CN6CCC(F)(F)C6)c5)cc34)cn2)CC1` [Compound 55, 5-(5-((3,3-Difluoropyrrolidin-1-yl)methyl)pyridin-3-yl)-N-(6-(4-methylpiperazin-1-yl)pyridin-3-yl)-1H-indazole-3-carboxamide], for which the IC50 in assay [1] came to 4 nM. Also, the IC50 in assay [2] was 140 nM. In assay [3], the “Conc (nM) of Max. activity” value stood at 100 nM and the “Max. Activity as % TGF-β3 activity” value is 69%. This compound also displayed an EC50 in assay [4] of 1 nM.

Turning to `Cc1cncc(NC(=O)c2n[nH]c3ccc(-c4cncc(CN5CCCCC5)c4)cc23)c1` [Compound 64, N-(5-Methylpyridin-3-yl)-5-(5-(piperidin-1-ylmethyl)pyridin-3-yl)-1H-indazole-3-carboxamide], the results for the IC50 in assay [1] and in assay [2] were 59 nM and 265 nM, respectively. Also, the “Conc (nM) of Max. activity” value in assay [3] is 2700 nM. Also, the “Max. Activity as % TGF-β3 activity” value in assay [3] worked out at 83%. This compound also came in with an EC50 in assay [4] of 2 nM.

In the case of `Cc1ccc(NC(=O)c2n[nH]c3ccc(-c4cncc(CN5CCCCC5)c4)cc23)cn1` [Compound 65, N-(6-Methylpyridin-3-yl)-5-(5-(piperidin-1-ylmethyl)pyridin-3-yl)-1H-indazole-3-carboxamide], the IC50 in assay [1] was 57 nM. Moreover, the IC50 in assay [2] came out at 172 nM. In addition, in assay [3], the “Conc (nM) of Max. activity” value is 900 nM, the “Conc (nM) of 100% TGF-β3 activity” value came out at 900 nM and the “Max. Activity as % TGF-β3 activity” value stood at 117%. Also, the midpoint of the response in assay [4], the EC50, lay at 1 nM.

For `O=C(Nc1cnccc1NC(=O)C1CC1)c1n[nH]c2ccc(-c3cncc(CN4CCCCC4)c3)cc12` [Compound 74, N-(4-(Cyclopropanecarboxamido)pyridin-3-yl)-5-(5-(piperidin-1-ylmethyl)pyridin-3-yl)-1H-indazole-3-carboxamide], the IC50 in assay [1] amounted to 120 nM; in assay [2], 2740 nM. Besides, the “Conc (nM) of Max. activity” value in assay [3] is reported as 10 nM. Besides, in assay [3], the “Max. Activity as % TGF-β3 activity” value is 31%.

For the compound `O=C(Nc1cccnc1)c1n[nH]c2ccc(-c3cncc(CN4CC5CC(C4)O5)c3)cc12` [Compound 84, 5-(5-((6-Oxa-3-azabicyclo[3.1.1]heptan-3-yl)methyl)pyridin-3-yl)-N-(pyridin-3-yl)-1H-indazole-3-carboxamide], the IC50 in assay [1] came out at 67 nM. The IC50 in assay [2] amounted to 132 nM. For the same compound, in assay [3], the “Conc (nM) of Max. activity” value is recorded as 900 nM, the “Conc (nM) of 100% TGF-β3 activity” value is 900 nM and the “Max. Activity as % TGF-β3 activity” value is 121%.
